Laboratory results from paper PMC9645637 (PLOS ONE, 2022).
Read-outs that look alike come from different tables or passages of the source.

Columns and labels:
[1] = test system: An. gambiae (COGS) larvae; assay: Larvicidal assay (WHO bioassay for mosquito larvicides); conditions: Anopheles gambiae, read-out: Larvicidal LC50 (95% confidence interval range)
Description: (§1) The laboratory-reared colonies of An. funestus (FUMOZ), An. arabiensis (KWAG), An. gambiae (COGS) and An. coluzzii (G3) were used for larvicidal and AChE screening assays. These are common Anopheles species responsible for malaria transmission in Africa. These colonies were maintained under standard insectary conditions as reported by Hunt et al. and Zengenene et al.. FUMOZ was first collected from Mozambique in 2000 and has a low-level intensity of pyrethroid and carbamate resistance. KWAG was collected from KwaZulu-Natal (South Africa) in 2005 and has shown resistance to pyrethroids and the organochloride, dichloro-diphenyl-trichloroethane (DDT).
(§2) The incubation mixture was performed in a total volume of 250 mL of deionized water under 27°C and humidity ≥78%. The test compounds were dissolved in DMSO and assessed for larvicidal activity at 10 times increasing concentrations from 0.0005 μM to 500 μM. Propoxur, a standard larvicide and an AChE agent, was used as a positive control, while DMSO was employed for the negative vehicle control. Larval mortality was recorded in 24, 48 and 72 hours and larvae were fed with protein dog food at day 0 and after every mortality counting.
(§3) All in vitro and in vivo assays were performed in triplicate.

[2] = test system: An. arabiensis (KWAG) larvae; assay: as above; conditions: for LC50: Anopheles arabiensis, read-out: Larvicidal LC50 (95% confidence interval range)
Description: as §1, §2, §3

[3] = test system: An. funestus (FUMOZ) larvae; assay: as above; conditions: read-out: Larvicidal LC50 (95% confidence interval range); An. funestus (FUMOZ) third-instar larvae
Description: as §1, §2, §3

An. coluzzii (G3) larvae = assay: as above; conditions: read-out: Larvicidal LC50 (95% confidence interval range); An. coluzzii (G3) third-instar larvae
Description: as §1, §2, §3

An. funestus AChE = assay: AChE assay (modified Ellman assay), mosquito homogenate; type: biochemical; conditions: read-out: Anopheles AChE inhibition IC50 ± SE (95% confidence interval range)
Method: (§4) Mosquitoes from the four Anopheles colonies were separately homogenized in Na2HPO4, 1% Triton X-100 (pH 8.0) and used as an enzyme source. Protein content was assessed using the standard Lowry protein assay. The incubation mixture in a 96-well plate consisted of 20 μl of the enzyme in 132 μL of the assay buffer (Na2HPO4, 1% Triton X-100; pH 8.0). […] Ellman’s reagent, 5,5′-dithiobis(2-nitrobenzoic acid) (DTNB), was freshly prepared in sodium phosphate buffer (dibasic; pH 7.0) and 8 μL (0.2 mM) added to the incubation mixture. To initiate the reaction, 20 μL (1 mM) of the AChE substrate, acetylthiocholine iodide was added making a total volume of 200 μL in each well and the absorbance readings were obtained using the UV-Visible spectrophotometer at 412 nm. Propoxur was kept as a positive control on the basis of having both AChE and larvicidal activities, while DMSO was used as a negative control. […] However, the insecticide propoxur was also assessed against this target to determine AChE selectivity between electric eel and Anopheles and subsequent comparison with the test compounds.
as §3

An. gambiae AChE = biological target: T1, An. gambiae AChE (Anopheles gambiae, UniProt Q869C3); assay: as above; type: biochemical
T1 construct: Mosquitoes from the four Anopheles colonies were separately homogenized in Na2HPO4, 1% Triton X-100 (pH 8.0) and used as an enzyme source; from tissue; host or cells: whole mosquito homogenate (An. gambiae colony)
Method: as §4, §3

An. arabiensis AChE = An. arabiensis AChE (Anopheles gambiae, UniProt Q869C3); assay: as above; type: biochemical
Method: as §4, §3

electric eel AChE = electric eel AChE (Electrophorus electricus, UniProt O42275); assay: AChE assay (modified Ellman assay), electric eel AChE; type: biochemical
Method: as §4, §3

Artemia franciscana = conditions: read-out: Brine shrimp LC50 (95% confidence interval); Artemia franciscana nauplii, 24 h
Method: as §3

[4] = An. gambiae homogenate, read-out: Anopheles AChE inhibition IC50 ± SE (95% confidence interval range)
[5] = An. arabiensis homogenate, read-out: Anopheles AChE inhibition IC50 ± SE (95% confidence interval range)
[6] = read-out: Electric eel AChE inhibition IC50 ± SE (95% confidence interval range)

electric eel AChE, sequence (O42275 24-633): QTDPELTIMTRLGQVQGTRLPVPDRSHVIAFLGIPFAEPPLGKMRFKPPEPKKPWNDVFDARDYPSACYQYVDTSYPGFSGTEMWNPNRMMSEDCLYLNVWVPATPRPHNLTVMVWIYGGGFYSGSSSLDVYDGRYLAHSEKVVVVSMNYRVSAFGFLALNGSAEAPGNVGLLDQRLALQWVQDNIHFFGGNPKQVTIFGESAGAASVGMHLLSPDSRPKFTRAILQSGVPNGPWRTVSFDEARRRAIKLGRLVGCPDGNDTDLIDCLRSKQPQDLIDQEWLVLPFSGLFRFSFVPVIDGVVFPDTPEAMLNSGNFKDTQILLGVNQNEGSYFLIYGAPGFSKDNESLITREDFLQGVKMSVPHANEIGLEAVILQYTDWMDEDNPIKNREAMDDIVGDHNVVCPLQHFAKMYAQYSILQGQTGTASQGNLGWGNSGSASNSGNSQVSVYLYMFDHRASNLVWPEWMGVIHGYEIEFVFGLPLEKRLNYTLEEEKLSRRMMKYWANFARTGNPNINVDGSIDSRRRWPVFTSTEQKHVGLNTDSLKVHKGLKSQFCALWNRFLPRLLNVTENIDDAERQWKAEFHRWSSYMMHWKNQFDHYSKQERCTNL
An. arabiensis AChE, sequence (Q869C3 162-698 limits assumed): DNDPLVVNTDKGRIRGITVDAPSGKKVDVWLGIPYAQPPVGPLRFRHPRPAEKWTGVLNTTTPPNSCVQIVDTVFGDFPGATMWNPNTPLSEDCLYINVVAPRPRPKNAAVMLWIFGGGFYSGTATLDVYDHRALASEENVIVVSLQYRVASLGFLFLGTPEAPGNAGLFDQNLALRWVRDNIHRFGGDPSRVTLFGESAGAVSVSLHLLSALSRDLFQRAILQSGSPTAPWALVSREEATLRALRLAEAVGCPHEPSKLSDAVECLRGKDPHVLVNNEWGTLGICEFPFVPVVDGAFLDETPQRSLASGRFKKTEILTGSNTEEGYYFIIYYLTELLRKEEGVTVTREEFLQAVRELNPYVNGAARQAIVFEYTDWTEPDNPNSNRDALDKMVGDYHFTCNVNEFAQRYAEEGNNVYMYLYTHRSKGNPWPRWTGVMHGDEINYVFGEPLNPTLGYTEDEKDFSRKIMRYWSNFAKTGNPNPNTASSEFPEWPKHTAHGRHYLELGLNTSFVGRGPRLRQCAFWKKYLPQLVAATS
T1 sequence (Q869C3 39-737): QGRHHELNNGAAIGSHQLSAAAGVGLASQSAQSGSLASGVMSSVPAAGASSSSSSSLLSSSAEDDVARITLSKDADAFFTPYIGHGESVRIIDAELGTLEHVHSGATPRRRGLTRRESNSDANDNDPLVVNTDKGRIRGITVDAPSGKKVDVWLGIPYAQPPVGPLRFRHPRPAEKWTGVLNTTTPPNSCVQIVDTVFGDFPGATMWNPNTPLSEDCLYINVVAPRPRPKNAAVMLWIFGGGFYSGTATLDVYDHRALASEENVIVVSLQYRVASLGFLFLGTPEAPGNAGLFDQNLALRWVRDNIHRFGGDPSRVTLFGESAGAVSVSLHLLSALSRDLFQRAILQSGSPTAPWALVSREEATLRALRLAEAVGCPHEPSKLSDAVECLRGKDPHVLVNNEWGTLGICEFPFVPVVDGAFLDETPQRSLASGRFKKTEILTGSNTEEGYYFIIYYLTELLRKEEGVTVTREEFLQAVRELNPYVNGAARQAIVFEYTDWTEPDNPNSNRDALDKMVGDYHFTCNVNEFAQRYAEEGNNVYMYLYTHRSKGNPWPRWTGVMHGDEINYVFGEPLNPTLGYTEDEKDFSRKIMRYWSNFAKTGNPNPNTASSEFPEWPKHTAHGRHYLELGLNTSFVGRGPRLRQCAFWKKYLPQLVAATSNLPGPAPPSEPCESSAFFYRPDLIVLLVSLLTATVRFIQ

Row | SMILES | LC50 [1] [µM] | LC50 [2] [µM] | LC50 [3] [µM] | LC50 (An. coluzzii (G3) larvae) [µM] | IC50 (An. funestus AChE) [µM] | IC50 (An. gambiae AChE; [4]) [µM] | IC50 (An. arabiensis AChE; [5]) [µM] | IC50 (electric eel AChE; [6]) [µM] | Fold more potent than propoxur for An. arabiensis larval toxicity ([2]; LC50 ratio versus propoxur) | IC50 (An. gambiae AChE) [µM] | IC50 (An. arabiensis AChE) [µM] | IC50 (electric eel AChE) [µM] | LC50 (Artemia franciscana) [µM]
1 | COc1cc(CCNC(=O)C2CCN(Cc3ccccc3)CC2)cc(OC)c1OC [derivative 3, 1-benzyl-N-(3,4,5-trimethoxyphenethyl) piperidine-4-carboxamide] | > 100 | > 100 | > 100 | > 100 | – | – | – | – | – | – | – | – | –
2 | O=C(NCc1ccco1)C1CCN(Cc2ccccc2)CC1 [derivative 5, 1-benzyl-N-(furan-2-ylmethyl) piperidine-4-carboxamide] | > 100 | > 100 | 2.96 | > 100 | > 100 | 31.4 ± 7.56 | > 100 | > 100 | – | – | – | – | –
3 | O=C(NCCc1c[nH]cn1)C1CCN(Cc2ccccc2)CC1 [derivative 6, N-[2-(1H-imidazol-4-yl)ethyl]-1-benzylpiperidine-4-carboxamide] | > 100 | > 100 | > 100 | > 100 | – | – | – | – | – | – | – | – | –
4 | O=C(Nc1nccs1)C1CCN(Cc2ccccc2)CC1 [derivative 2, 1-benzyl-N-(thiazol-2-yl) piperidine-4-carboxamide] | > 100 | 0.88 | > 100 | > 100 | > 100 | > 100 | 6.05 ± 2.21 | 55.7 ± 12 | about 10 fold | – | – | – | –
5 | O=C(NCc1cccnc1)C1CCN(Cc2ccccc2)CC1 [derivative 4, 1-benzyl-N-(pyridine-3-ylmethyl) piperidine-4-carboxamide] | > 100 | > 100 | > 100 | > 100 | – | – | – | – | – | – | – | – | –
6 | CNC(=O)Oc1ccccc1OC(C)C [Propoxur, propoxur, reference compound] | 64 | 8.77 | 9.9 | 62.7 | 0.89 ± 0.2 | – | – | – | – | 26.1 ± 6.21 | 0.78 ± 0.16 | 1.28 ± 0.35 | –
7 | O=C(NCCN1CCCCC1)C1CCN(Cc2ccccc2)CC1 [derivative 8, 1-benzyl-N-(2-(piperidin-1-yl)ethyl)piperidine-4-carboxamide] | > 100 | > 100 | 0.8 | > 100 | > 100 | 28.1 ± 6.89 | > 100 | 88.3 ± 19.9 | – | – | – | – | –
8 | O=C(NCc1ccncc1)C1CCN(Cc2ccccc2)CC1 [derivative 9, 1-benzyl-N-(pyridine-4-ylmethyl) piperidine-4-carboxamide] | > 100 | > 100 | > 100 | > 100 | – | – | – | – | – | – | – | – | –
9 | [K+].[K+].[O]=[Cr](=[O])([O-])[O][Cr](=[O])(=[O])[O-] [potassium dichromate] | – | – | – | – | – | – | – | – | – | – | – | – | 0.004
10 | O=C(NCCN1CCOCC1)C1CCN(Cc2ccccc2)CC1 [derivative 1, 1-benzyl-N-(2-morpholinoethyl) piperidine-4-carboxamide] | > 100 | > 100 | 2.65 | > 100 | > 100 | 48.9 ± 10.5 | > 100 | > 100 | – | – | – | – | –
11 | O=C(NC1CCCc2ccccc21)C1CCN(Cc2ccccc2)CC1 (centres unmarked) [derivative 7, 1-benzyl-N-(1,2,3,4-tetrahydro-naphthalen-1-yl) piperidine-4-carboxamide] | > 100 | > 100 | > 100 | > 100 | – | – | – | – | – | – | – | – | –
